Data set [1] relates to psoriasis-induced human skin xenotransplants. The experiment in a line: Histological evaluation of psoriasis-induced xenotransplants. Type of data set: in vivo, beige-SCID mice. The following applies: topical for 14 days, histology on Day 56. An excerpt: The objective of this study was to determine the efficacy of Erlotinib 5% as provided herein compared to the vehicle and Dexamethasone as shown at the Table below. The evaluation was based on histology analysis following application of the respective test formulations.
The efficacy study has been conducted on female mice. The total duration of the experiment was 8 weeks, upon receiving of the human skin. Normal skin from healthy volunteers were obtained for grafting. Healthy human abdominal skin pieces with a width of 0.4 mm and surface area of 1.5×1.5 cm were provided. The skin sample was preserved in isotonic saline solution and transplanted within 6-12 hours after skin donation. In addition, blood samples were collected from psoriatic patients having classic plaque psoriasis and not undergoing any treatment. 20 mL blood samples were taken from both males and females psoriatic patients (from psoriatic patients having classic plaque psoriasis and not undergoing any treatment), and peripheral blood mononuclear cells (PBMC) were separated immediately after blood withdrawal.
Mice: Beige-severe combined immunodeficient mice C.B-17/IcrHsdscid-bg (beige-SCID) mice (weight ˜25 g) were included in this study. Mice were monitored twice a week for vital signs such as weight, food intake, coat, eyes, anal genital areas, discharge/soiling, behavior and criteria related to skin transplantation. Normal healthy human donor skin were transplanted onto the beige-SCID mice as previously described (See Keren A. et al., Novel nanosome delivery system combined with siRNA targeting the antimicrobial gene DFB4: a new approach for psoriasis management?ExpDermatol. 2014; 23:464-465; Bracke S. et al.,Targeted silencing of DEFB4 in a bioengineered skin-humanized mouse model for psoriasis: development of siRNA SECosome-based novel therapies. ExpDermatol. 2014 ;23:199-201; Zaretsky M. et al., Directed evolution of a soluble human IL-17A receptor for the inhibition of psoriasis plaque formation in a mouse model. Chem Biol. 2013 21; 20:202-2; Gilhar A. et al., The beneficial effect of blocking Kv1.3 in the psoriasiform SCID mouse model. J Invest Dermatol. 2011;131:118 124; Keren A. et al., Innate lymphoid cells 3 induce psoriasis in xenotransplanted healthy human skin. J Allergy Clin Immunol. 2018;142:305-308.e6.).
British Journal of Pharmacology 2010; 159:842-855).
Four weeks following the engraftment, each mouse was injected (intradermally) with 1×10^7 IL-2 enriched allogeneic PBMC's from psoriatic patients (1×10^7 cells injected/mouse). Cells from different psoriasis patients were equally distributed between treatment groups. Each patient was represented in each treatment group.
Fourteen days following cells injections, the mice were divided into treatment groups (Table, see below) and treated according to the timeline indicated below (see Scheme 1). Each transplant was equally topically treated (50 μg) by using a sterile spatula.
Dexamethasone (D2915, Sigma): was freshly prepared for each administration by dilution in saline to final concentration (50 mg/ml). Dexamethasone serves as a positive control and was administered topically twice daily for 14 days following cells injections (at Day 42 following human skin transplantation) until the end of the study (Day 56).
The vehicle was administered topically (50 μg) once daily for 14 days as well.
On Day 56, the entire skin graft was excised and placed in 10% formaldehyde in saline overnight. Then, the specimens were placed in 70% ethanol and embedded and stained according to the standard Hematoxylin/Eosin protocol.
Skin graft histological assessment was performed (according to the psoriatic criteria including epidermal thickness) using light microscopy, and two observers blindly performed the evaluations. Epidermal thickness was determined using an ocular micrometer at a minimum of 50 points along the epidermis selected to represent points of maximal and minimal thickness. […]

For data set [2] the following is noted: cited from earlier work.
The subject of data set [3] is Ki67. As to the kind of experiment: Epidermal proliferation of transplants, Ki67 immunohistochemical staining. Type of data set: in vivo, beige-SCID mice. The following applies: xenotransplants after 14 days of treatment. Here is the method:
From the study of Example 11, the human skin xenotransplants were harvested and fixed in 10% saline-buffered formalin overnight followed by 70% ethanol. Sections were stained and visualized with immunohistochemistry.
Antigen retrieval was performed on the slides for 20 minutes in a microwave followed by cooling at room temperature for 25 minutes. Specimens were blocked for 30 minutes to prevent nonspecific binding and incubated with the primary antibody (Ab) overnight. The following primary antibodies were used: mouse anti human Ki67. Samples were then washed and incubated for 30 minutes with a biotinylated secondary antibody (Jackson ImmunoResearch, West Grove, Pa.). Finally, samples were washed and incubated with streptavidin-horseradish peroxidase (Jackson ImmunoResearch, West Grove, Pa.). […] Samples were examined using light microscopy.
Slides were evaluated by experienced blinded observers. The fields of immunostained sections were counted in three areas and presented randomly to the observer(s).

[4] abbreviates: number of transplants out of 10.

Where a name gives a salt, the structure may show the parent alone. Read-outs that look alike come from different tables or passages of the source.

Take `C[C@@H]1C[C@H]2[C@@H]3CCC4=CC(=O)C=C[C@]4(C)[C@@]3(F)[C@@H](O)C[C@]2(C)[C@@]1(O)C(=O)CO` [Dexamethasone]: in data set [1] (setting [4]), the “Complete Recovery” value is on record as 9/10, the “Partial Recovery” value was 1/10 and the “Psoriatic Features” value is reported as 0/10. In addition, in data set [1] (percent of transplants), the “Complete Recovery” value was “(90%)”, the “Partial Recovery” value is reported as “(10%)” and the “Psoriatic Features” value is “(0%)”.

For the molecule `C#Cc1cccc(Nc2ncnc3cc(OCCOC)c(OCCOC)cc23)c1` [Erlotinib hydrochloride], the Solubility entry in data set [2] (in acetone) is “practically insoluble”; in data set [2] (in acetonitrile), “practically insoluble”; in data set [2] (in ethyl acetate), “practically insoluble”; in data set [2] (in hexane), “practically insoluble”; in data set [2] (in methanol) it was “slightly soluble”; in data set [2] (in water), “very slightly soluble”.

Turning to `C#Cc1cccc(Nc2ncnc3cc(OCCOC)c(OCCOC)cc23)c1` [Erlotinib, N-(3-ethynylphenyl)-6,7-bis(2-methoxyethoxy)-4-quinazolinamine], the “proliferation index (Ki-67) compared to vehicle-treated xenotransplants” value in data set [3] is on record as “significant decrease”.

These data come from patent US20230390291A1, “TREATMENT OF SKIN DISORDERS WITH COMPOSITIONS COMPRISING AN EGFR INHIBITOR” (Sol-Gel Technologies Ltd., priority 2018, published 2023).
